Experimental data from ChEMBL document CHEMBL5029158, “Design, structure-activity relationship study and biological evaluation of the thieno[3,2-c]isoquinoline scaffold as a potential anti-cancer agent” (Bioorg Med Chem Lett, 2021).
Calls of active or inactive are those of the source. No cut-off for these calls is given here.

Columns and labels:
[1] = target: T1, Tubulin (Homo sapiens) (UniProt P68371+Q9H4B7+P0DPH7+P68366+Q13509+Q71U36+P04350+Q3ZCM7+P07437+P68363+Q9BQE3+Q6PEY2+Q13885+Q9BVA1+Q9BUF5); experiment: Inhibition of colchicine binding to tubulin (unknown origin) at 1 uM by fluorescence assay; assay type: protein-complex assay
[2] = system: A549; experiment: Cytotoxicity against human A549 cells assessed as reduction in cell viability; assay type: functional, cell-based
[3] = system: A549; experiment: Potency index, ratio of […] for cytotoxicity against human A549 cells assessed as reduction in cell viability; assay type: functional
[4] = system: HCT-116; experiment: Cytotoxicity against human HCT-116 cells assessed as reduction in cell viability; assay type: functional, cell-based
[5] = system: HeLa; experiment: Cytotoxicity against human HeLa cells assessed as reduction in cell viability; assay type: functional, cell-based
[6] = Selectivity index, ratio of IC50 for cytotoxicity against human fibroblasts to IC50 for human HeLa cells; assay type: toxicity, cell-based; conditions: human fibroblasts versus HeLa cells, read-out: Selectivity Index
[7] = system: A549; experiment: Cytotoxicity against human A549 cells assessed as cell death measured after 2 to 3 days; assay type: functional, cell-based; conditions: time 2-3 day
[8] = system: MDA-MB-231; experiment: Cytotoxicity against human MDA-MB-231 cells assessed as reduction in cell viability; assay type: functional, cell-based
[9] = system: A549; experiment: Antitumor activity against human A549 cell assessed as disrupted in spheroid morphology at 0.5 to 1 uM measured after 6 days; assay type: functional, cell-based; conditions: dose 0.5-1 µM, time 6.0 day
[10] = system: A549; experiment: Induction of mitotic arrest in human A549 cells assessed as reduction in microtubule network with fragmented spindle poles at 0.50 uM measured after 8 hrs by DAPI/ACA staining based fluorescence microscopic analysis; assay type: functional, cell-based; conditions: dose 0.5 µM
[11] = Selectivity index, ratio of IC50 for cytotoxicity against human fibroblasts to IC50 for human MDA-MB-231 cells; assay type: toxicity, cell-based; conditions: human fibroblasts versus MDA-MB-231 cells, read-out: Selectivity Index
[12] = target: T1, Tubulin (Homo sapiens); experiment: Inhibition of microtubule (unknown origin) polymerization at 0.6 uM; assay type: protein-complex assay
[13] = system: HFF-1; experiment: Cytotoxicity against human HFF-1 cells assessed as reduction in cell viability; assay type: cell-based
[14] = target: T1, Tubulin (Homo sapiens); experiment: Inhibition of microtubule (unknown origin) polymerization at 5 uM; assay type: protein-complex assay
[15] = Selectivity index, ratio of IC50 for cytotoxicity against human fibroblasts to IC50 for human HCT-116 cells; assay type: toxicity, cell-based; conditions: human fibroblasts versus HCT-116 cells, read-out: Selectivity Index
[16] = Selectivity index, ratio of IC50 for cytotoxicity against human fibroblasts to IC50 for human A549 cells; assay type: toxicity, cell-based; conditions: human fibroblasts versus A549 cells, read-out: Selectivity Index
[17] = system: Fibroblast; experiment: Cytotoxicity against human fibroblasts assessed as reduction in cell viability; assay type: cell-based

Row | Compound | IC50 [2] [nM] | Ratio IC50 [3] | other results
1 | CC[C@]1(O)C[C@@H]2CN(CCc3c([nH]c4ccccc34)[C@@](C(=O)OC)(c3cc4c(cc3OC)N(C)[C@H]3[C@@](O)(C(=O)OC)[C@H](OC(C)=O)[C@]5(CC)C=CCN6CC[C@]43[C@@H]65)C2)C1 | – | – | inhibition [1]: inactive
2 | COc1ccc(S(=O)(=O)N2Cc3ccccc3-c3sc(Cl)c(C)c32)cc1 | 550 | 34.3 | –
3 | COc1cc2c(c(OC)c1OC)-c1ccc(OC)c(=O)cc1[C@@H](NC(C)=O)CC2 [COLCHICINE] | 16 | – | IC50 [4]: 22 nM; IC50 [5]: 10 nM
4 | COc1ccc(S(=O)(=O)N2Cc3ccccc3-c3sc(I)cc32)cc1 | 780 | 48.7 | –
5 | COc1ccc(S(=O)(=O)N2Cc3ccccc3-c3sccc32)cc1 | 780 | – | –
6 | O=S(=O)(c1ccc(C(F)(F)F)cc1)N1Cc2ccccc2-c2sccc21 | > 10000 | – | –
7 | Cc1ccc(S(=O)(=O)N2Cc3ccccc3-c3sc(Br)cc32)cc1 | 2100 | 131.2 | –
8 | O=S(=O)(c1ccccc1)N1Cc2ccccc2-c2sc(Br)cc21 | 1900 | 118.7 | –
9 | O=S(=O)(c1ccc(C(F)(F)F)cc1)N1Cc2ccccc2-c2sc(Br)cc21 | > 10000 | >625 | –
10 | O=S(=O)(c1ccccc1)N1Cc2ccccc2-c2sccc21 | 5200 | – | –
11 | COc1ccc(S(=O)(=O)N2Cc3ccccc3-c3sc(Br)c(C)c32)cc1 | 2800 | 175 | –
12 | COC(=O)Nc1nc2cc(C(=O)c3cccs3)ccc2[nH]1 | – | – | inhibition [1]: Active
13 | CC(C)(C)c1ccc(S(=O)(=O)N2Cc3ccccc3-c3sc(Br)cc32)cc1 | > 10000 | >625 | –
14 | CS(=O)(=O)N1Cc2ccccc2-c2sc(Br)cc21 | > 10000 | >625 | –
15 | Cc1cccc(S(=O)(=O)N2Cc3ccccc3-c3sc(Br)cc32)c1 | 2300 | 143.7 | –
16 | COc1ccc(S(=O)(=O)N2Cc3ccccc3-c3sc(Cl)cc32)cc1 | 430 | 36.8 | –
17 | CS(=O)(=O)N1Cc2ccccc2-c2sccc21 | > 10000 | – | –
18 | Cc1cccc(S(=O)(=O)N2Cc3ccccc3-c3sccc32)c1 | 6000 | – | –
19 | O=S(=O)(c1cccs1)N1Cc2ccccc2-c2sccc21 | > 10000 | – | –
20 | Cc1ccc(S(=O)(=O)N2Cc3ccccc3-c3sccc32)cc1 | 3400 | – | –
21 | COc1ccc(S(=O)(=O)N2Cc3ccccc3-c3scc(C)c32)cc1 | 630 | 39.3 | –
22 | COc1ccc(S(=O)(=O)N2Cc3ccccc3-c3sc(Br)cc32)cc1 | 370 | 23.1 | selectivity ratio [6]: 3.2; Activity [7]: Active; IC50 [4]: 430 nM; IC50 [8]: 260 nM; Activity [9]: Active; inhibition [1]: Active; Activity [10]: inactive; selectivity ratio [11]: 5.3; inhibition [12]: Active; IC50 [13]: 790 nM; inhibition [14]: Active; selectivity ratio [15]: 3.2; selectivity ratio [16]: 3.8; IC50 [17]: 1400 nM; IC50 [5]: 430 nM
23 | CC(C)(C)c1ccc(S(=O)(=O)N2Cc3ccccc3-c3sccc32)cc1 | > 10000 | – | –
